Measurements: patent publication US8907131B2, “Compounds for treating proliferative disorders” (Synta Pharmaceuticals Corp., priority 2007, dated 2014)
pEC50: −log10 of the molar value.

Tested on: Hsp70
Assay: Hsp70 ELISA assay: Hsp70 induction in Ramos B lymphoma cells
Type: cell-based
Settings: Homo sapiens; Ramos B lymphoma cells treated at 10, 50, 250 and 1250 nM for 5 h; whole culture lysate, Hsp70 ELISA; read-out: ED50 (Hsp70 induction)
Procedure: Hsp70 induction was measured in Ramos B lymphoma cells. Cells were seeded at 80 μl/well in 96-plate and treated with compounds at 10, 50, 250 and 1250 nM for 5 h. […] Cells were lysed in culture medium with ¼-vol of alkaline-detergent buffer composed of 200 mM bicarbonate, pH 9.4, and 20% Triton X100 to include Hsp70 that would be released into culture supernatant. […] Fifty microliter of the whole culture lysate was transferred to Hsp70 ELISA assay well (Assay Design) including 150 μl of immunoenhancer solution (Toyobo, Japan). Then the assay steps were carried out according to the protocol of the manufacturer. Compound A was included in each cell culture plate as a reference to normalize the interexperimental variance.

| Structure (SMILES) | pEC50 |
| --- | --- |
| CN(NC(=O)CC(=O)NN(C)C(=[Se])c1ccccc1)C(=[Se])c1ccccc1 [Compound 1, N′1,N′3-dimethyl-N′1,N′3-di(phenylcarbonoselenoyl)malonohydrazide] | 7.15 |
| CO/N=C(\c1ccccc1)N(C)NC(=O)CC(=O)NN(C)/C(=N/OC)c1ccccc1 [Compound 10, N′1,N′3-bis((E)-(methoxyimino)(phenyl)methyl)-N′1,N′3-dimethylmalonohydrazide] | < 5.90 |
| CN(NC(=O)CC(=O)NN(C)/C(=N/O)c1ccccc1)/C(=N/O)c1ccccc1 [Compound 11, N′1,N′3-bis((E)-(hydroxyimino)(phenyl)methyl)-N′1,N′3-dimethylmalonohydrazide] | < 5.90 |
| COc1ccc(OC)c(C(=[Se])N(C)NC(=O)CC(=O)NN(C)C(=[Se])c2cc(OC)ccc2OC)c1 [Compound 12, N′^1,N′3-bis(2,5-dimethoxyphenylcarbonoselenoyl)-N′^1,N′^3-dimethylmalonohydrazide] | < 5.90 |
| CNN=C(C(=O)NN(C)C(=[Se])c1ccccc1)C(=O)NN(C)C(=[Se])c1ccccc1 [Compound 13, N′1,N′3-dimethyl-2-(2-methylhydrazono)-N′1,N′3-di(phenylcarbonoselenoyl)malonohydrazide] | < 5.90 |
| CN(NC(=O)CS(=O)(=O)NN(C)C(=[Se])c1ccccc1)C(=[Se])c1ccccc1 [Compound 14, N′-methyl-2-(2-methyl-2-(phenylcarbonoselenoyl)hydrazinyl)-2-oxo-N′-(phenylcarbonoselenoyl)ethanesulfonohydrazide] | < 5.90 |

Same assay, conditions: Ramos B lymphoma cells; titration used to set cell density

| Structure (SMILES) | Hsp70 induction |
| --- | --- |
| CN(NC(=O)CC(=O)NN(C)C(=S)c1ccccc1)C(=S)c1ccccc1 [Compound A, reference compound] | Hsp70 induction in linear manner with concentration |
